Experimental data as given in ChEMBL document CHEMBL5543147, “Discovery and Characterization of a Novel Cereblon-Recruiting PRC1 Bridged PROTAC Degrader” (J Med Chem, 2024).
Activity calls are given as the source filed them. The calls are words filed in the database; no cut-off is given here.

Columns and labels:
[1] = tested on: K562; assay: Antiproliferative activity against human K562 cells assessed as cell growth inhibition incubated for 7 days by WST-8 assay; assay type: functional; settings: time 7.0 day
[2] = target: T1, Protein cereblon/Polycomb protein EED (Homo sapiens, UniProt O75530+Q96SW2); assay: PROTAC activity at CRBN/EED in human PC-3M cells assessed as degradation of EED protein expression at 0.2 to 5 uM incubated for 24 hrs by Western blotting analysis; assay type: cell-based; settings: dose 0.2-5 µM
T1 sequence (O75530 2-441 limits assumed): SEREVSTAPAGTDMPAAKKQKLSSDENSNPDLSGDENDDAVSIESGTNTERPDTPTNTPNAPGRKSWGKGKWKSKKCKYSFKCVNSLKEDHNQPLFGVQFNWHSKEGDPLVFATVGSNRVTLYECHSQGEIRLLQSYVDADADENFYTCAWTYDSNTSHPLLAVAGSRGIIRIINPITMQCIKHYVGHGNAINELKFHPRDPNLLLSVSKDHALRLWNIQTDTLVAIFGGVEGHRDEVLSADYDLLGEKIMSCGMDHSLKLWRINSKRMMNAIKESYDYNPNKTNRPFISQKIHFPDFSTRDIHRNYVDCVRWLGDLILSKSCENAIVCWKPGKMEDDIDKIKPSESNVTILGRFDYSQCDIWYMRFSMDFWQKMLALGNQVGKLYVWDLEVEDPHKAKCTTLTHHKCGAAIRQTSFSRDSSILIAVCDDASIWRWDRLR
T1 sequence (Q96SW2 whole entry partner): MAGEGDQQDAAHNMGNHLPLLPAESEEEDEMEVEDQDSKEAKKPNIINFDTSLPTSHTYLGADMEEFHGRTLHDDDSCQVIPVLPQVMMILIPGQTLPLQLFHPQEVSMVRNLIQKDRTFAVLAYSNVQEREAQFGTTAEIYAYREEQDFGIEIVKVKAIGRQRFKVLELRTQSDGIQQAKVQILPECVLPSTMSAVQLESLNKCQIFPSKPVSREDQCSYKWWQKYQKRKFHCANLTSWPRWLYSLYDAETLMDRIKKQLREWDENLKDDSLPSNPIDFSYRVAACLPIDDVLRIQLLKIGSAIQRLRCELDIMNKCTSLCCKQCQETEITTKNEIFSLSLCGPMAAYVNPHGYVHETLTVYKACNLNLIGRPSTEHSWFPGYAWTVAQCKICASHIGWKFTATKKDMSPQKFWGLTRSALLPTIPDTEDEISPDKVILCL

[3] = target: T2, Protein cereblon/E3 ubiquitin-protein ligase RING2 (Homo sapiens, UniProt Q96SW2+Q99496); assay: PROTAC activity at CRBN/RING1B in human MDA-MB-468 cells assessed as degradation of RING1B protein expression at 0.2 to 5 uM incubated for 24 hrs by Western blotting analysis; assay type: cell-based; settings: dose 0.2-5 µM
T2 sequence (Q96SW2 whole entry): as the sequence (Q96SW2 whole entry partner) above
T2 sequence (Q99496 2-336 partner limits assumed): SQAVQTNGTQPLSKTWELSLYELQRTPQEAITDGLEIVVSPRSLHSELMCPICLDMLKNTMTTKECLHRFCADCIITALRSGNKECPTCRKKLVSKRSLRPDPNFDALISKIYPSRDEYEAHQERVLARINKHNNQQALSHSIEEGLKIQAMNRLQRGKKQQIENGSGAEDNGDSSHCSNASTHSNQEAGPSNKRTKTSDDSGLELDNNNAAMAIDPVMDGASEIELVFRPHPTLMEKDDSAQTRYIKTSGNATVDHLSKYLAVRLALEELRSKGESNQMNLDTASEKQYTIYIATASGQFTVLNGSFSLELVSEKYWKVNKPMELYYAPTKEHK

[4] = tested on: K562; assay: Induction of PRC2 degradation in human K562 cells assessed as reduction of H3K27me3 chromatin mark at 1 to 10 uM incubated for 24 hrs by Western blotting analysis; assay type: cell-based; settings: dose 1-10 µM
[5] = target: T2, Protein cereblon/E3 ubiquitin-protein ligase RING2; assay: PROTAC activity at CRBN/RING1B in human K562 cells assessed as degradation of RING1B protein expression at 1 to 10 uM incubated for 24 hrs by Western blotting analysis; assay type: cell-based; settings: dose 1-10 µM
[6] = target: T3, Protein cereblon/Histone-lysine N-methyltransferase EZH2 (Homo sapiens) (UniProt Q15910+Q96SW2); assay: PROTAC activity at CRBN/EZH2 in human PC-3M cells assessed as degradation of EZH2 protein expression at 0.2 to 5 uM incubated for 24 hrs by Western blotting analysis; assay type: cell-based; settings: dose 0.2-5 µM
T3 sequence (Q15910 whole entry, looked up): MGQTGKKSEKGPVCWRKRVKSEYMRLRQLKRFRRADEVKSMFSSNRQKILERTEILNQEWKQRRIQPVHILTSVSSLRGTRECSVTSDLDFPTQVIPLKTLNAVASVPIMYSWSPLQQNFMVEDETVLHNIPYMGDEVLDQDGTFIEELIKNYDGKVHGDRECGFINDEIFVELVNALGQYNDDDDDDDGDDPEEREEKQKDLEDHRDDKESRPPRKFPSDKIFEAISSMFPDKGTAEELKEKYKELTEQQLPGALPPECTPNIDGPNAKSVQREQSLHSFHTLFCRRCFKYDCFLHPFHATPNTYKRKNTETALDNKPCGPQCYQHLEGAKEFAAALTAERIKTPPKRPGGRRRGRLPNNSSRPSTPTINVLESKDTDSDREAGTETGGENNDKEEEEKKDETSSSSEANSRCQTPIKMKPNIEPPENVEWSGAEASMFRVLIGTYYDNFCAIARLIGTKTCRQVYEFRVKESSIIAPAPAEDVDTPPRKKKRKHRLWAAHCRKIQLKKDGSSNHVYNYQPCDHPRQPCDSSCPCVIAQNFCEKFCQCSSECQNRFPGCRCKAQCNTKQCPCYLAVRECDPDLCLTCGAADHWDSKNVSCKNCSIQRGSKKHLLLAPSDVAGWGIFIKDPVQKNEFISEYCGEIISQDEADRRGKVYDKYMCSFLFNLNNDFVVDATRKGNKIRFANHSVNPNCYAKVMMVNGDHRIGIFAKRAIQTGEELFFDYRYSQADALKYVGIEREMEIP
T3 sequence (Q96SW2 whole entry, looked up): as the sequence (Q96SW2 whole entry partner) above

[7] = target: T4, von Hippel-Lindau disease tumor suppressor/Polycomb complex protein BMI-1 (Homo sapiens) (UniProt P40337+P35226); assay: PROTAC activity at […] in human MDA-MB-468 cells assessed as degradation of BMI1 protein expression at 0.2 to 5 uM incubated for 24 hrs by Western blotting analysis; assay type: cell-based; settings: dose 0.2-5 µM
T4 sequence (P35226 whole entry, looked up): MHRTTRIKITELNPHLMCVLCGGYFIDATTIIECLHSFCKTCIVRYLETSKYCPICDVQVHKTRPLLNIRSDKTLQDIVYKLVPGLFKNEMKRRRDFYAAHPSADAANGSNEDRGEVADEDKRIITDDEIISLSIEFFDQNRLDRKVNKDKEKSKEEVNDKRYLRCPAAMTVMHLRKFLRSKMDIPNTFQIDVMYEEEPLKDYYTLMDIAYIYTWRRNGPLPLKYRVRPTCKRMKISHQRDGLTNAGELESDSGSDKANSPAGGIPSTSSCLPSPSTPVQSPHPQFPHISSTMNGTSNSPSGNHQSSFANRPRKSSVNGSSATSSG
T4 sequence (P40337 whole entry, looked up): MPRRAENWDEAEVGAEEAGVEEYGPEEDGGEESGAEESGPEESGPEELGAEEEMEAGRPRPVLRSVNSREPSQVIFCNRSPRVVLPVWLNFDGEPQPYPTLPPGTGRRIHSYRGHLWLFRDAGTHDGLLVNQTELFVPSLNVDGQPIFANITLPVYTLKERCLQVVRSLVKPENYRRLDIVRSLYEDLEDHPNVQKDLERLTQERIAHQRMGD

[8] = tested on: K562; assay: Antiproliferative activity against human K562 cells assessed as increase in HoxD mRNA expression at 10 uM incubated for 24 hrs by RT-qPCR analysis; assay type: functional, cell-based
[9] = tested on: MDA-MB-468; assay: Induction of PRC1 degradation in human MDA-MB-468 cells assessed as reduction of H2AK119ub chromatin mark at 0.2 to 5 uM incubated for 24 hrs by Western blotting analysis; assay type: cell-based; settings: dose 0.2-5 µM
[10] = tested on: PC-3M; assay: Induction of PRC2 degradation in human PC-3M cells assessed as reduction of H3K27me3 chromatin mark at 0.2 to 5 uM incubated for 24 hrs by Western blotting analysis; assay type: cell-based; settings: dose 0.2-5 µM
[11] = target: T3, Protein cereblon/Histone-lysine N-methyltransferase EZH2 (Homo sapiens); assay: PROTAC activity at CRBN/EZH2 in human MDA-MB-468 cells assessed as degradation of EZH2 protein expression at 0.2 to 5 uM incubated for 24 hrs by Western blotting analysis; assay type: cell-based; settings: dose 0.2-5 µM
[12] = target: T5, Protein cereblon/Polycomb protein SUZ12 (Homo sapiens) (UniProt Q15022+Q96SW2); assay: PROTAC activity at CRBN/SUZ12 in human PC-3M cells assessed as degradation of SUZ12 protein expression at 0.2 to 5 uM incubated for 24 hrs by Western blotting analysis; assay type: cell-based; settings: dose 0.2-5 µM
T5 sequence (Q15022 whole entry, looked up): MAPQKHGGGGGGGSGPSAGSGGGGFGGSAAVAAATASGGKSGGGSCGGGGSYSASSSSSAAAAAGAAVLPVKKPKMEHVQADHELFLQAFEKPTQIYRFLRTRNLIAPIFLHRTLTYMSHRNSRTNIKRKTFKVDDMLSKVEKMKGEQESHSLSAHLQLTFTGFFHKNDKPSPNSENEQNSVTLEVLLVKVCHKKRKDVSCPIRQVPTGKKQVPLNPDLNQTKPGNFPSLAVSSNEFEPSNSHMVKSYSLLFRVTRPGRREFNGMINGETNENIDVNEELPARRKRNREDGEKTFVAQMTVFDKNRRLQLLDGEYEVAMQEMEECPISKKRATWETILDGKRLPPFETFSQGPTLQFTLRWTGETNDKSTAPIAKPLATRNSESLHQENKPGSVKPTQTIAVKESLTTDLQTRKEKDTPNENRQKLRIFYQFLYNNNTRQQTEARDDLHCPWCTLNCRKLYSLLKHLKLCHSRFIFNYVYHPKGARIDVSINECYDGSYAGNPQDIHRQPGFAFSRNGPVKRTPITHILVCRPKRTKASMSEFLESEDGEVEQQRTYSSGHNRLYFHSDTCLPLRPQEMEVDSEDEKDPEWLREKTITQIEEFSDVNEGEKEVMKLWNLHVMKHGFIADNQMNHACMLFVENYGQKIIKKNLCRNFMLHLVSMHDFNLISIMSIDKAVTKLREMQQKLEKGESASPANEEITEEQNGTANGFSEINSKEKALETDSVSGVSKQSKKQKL
T5 sequence (Q96SW2 whole entry, looked up): as the sequence (Q96SW2 whole entry partner) above

[13] = tested on: K562; assay: Antiproliferative activity against human K562 cells assessed as increase in HoxA mRNA expression at 10 uM incubated for 24 hrs by RT-qPCR analysis; assay type: functional, cell-based
[14] = target: T1, Protein cereblon/Polycomb protein EED; assay: PROTAC activity at CRBN/EED in human MDA-MB-468 cells assessed as degradation of EED protein expression at 0.2 to 5 uM incubated for 24 hrs by Western blotting analysis; assay type: cell-based; settings: dose 0.2-5 µM
[15] = target: T4, von Hippel-Lindau disease tumor suppressor/Polycomb complex protein BMI-1 (Homo sapiens); assay: PROTAC activity at […] in human PC-3M cells assessed as degradation of BMI1 protein expression at 0.2 to 5 uM incubated for 24 hrs by Western blotting analysis; assay type: cell-based; settings: dose 0.2-5 µM
[16] = target: T4, von Hippel-Lindau disease tumor suppressor/Polycomb complex protein BMI-1 (Homo sapiens); assay: PROTAC activity at […] in human K562 cells assessed as degradation of BMI1 protein expression at 1 to 10 uM incubated for 24 hrs by Western blotting analysis; assay type: cell-based; settings: dose 1-10 µM
[17] = tested on: PC-3M; assay: Induction of PRC1 degradation in human PC-3M cells assessed as reduction of H2AK119ub chromatin mark at 0.2 to 5 uM incubated for 24 hrs by Western blotting analysis; assay type: cell-based; settings: dose 0.2-5 µM
[18] = target: T2, Protein cereblon/E3 ubiquitin-protein ligase RING2; assay: PROTAC activity at CRBN/RING1B in human PC-3M cells assessed as degradation of RING1B protein expression at 0.2 to 5 uM incubated for 24 hrs by Western blotting analysis; assay type: cell-based; settings: dose 0.2-5 µM
[19] = target: von Hippel-Lindau disease tumor suppressor/Polycomb protein EED (Homo sapiens, UniProt O75530+P40337); assay: PROTAC activity at VHL/EED in human KARPAS-422 cells assessed as degradation of EED protein expression by Western blotting analysis; assay type: cell-based
Sequence of von Hippel-Lindau disease tumor suppressor/Polycomb protein EED (O75530 whole entry): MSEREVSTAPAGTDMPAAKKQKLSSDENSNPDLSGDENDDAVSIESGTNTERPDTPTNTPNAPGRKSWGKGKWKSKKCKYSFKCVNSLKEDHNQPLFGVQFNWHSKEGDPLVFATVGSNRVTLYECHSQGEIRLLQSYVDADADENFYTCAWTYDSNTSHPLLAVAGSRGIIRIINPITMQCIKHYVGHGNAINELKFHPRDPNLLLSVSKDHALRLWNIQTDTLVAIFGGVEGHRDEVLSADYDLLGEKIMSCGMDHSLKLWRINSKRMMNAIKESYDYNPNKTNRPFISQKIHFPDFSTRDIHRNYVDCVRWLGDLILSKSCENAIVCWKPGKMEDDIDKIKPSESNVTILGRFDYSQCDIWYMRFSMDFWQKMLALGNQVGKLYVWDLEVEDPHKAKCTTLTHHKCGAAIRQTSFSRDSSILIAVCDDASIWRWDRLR
Sequence of von Hippel-Lindau disease tumor suppressor/Polycomb protein EED (P40337 whole entry): as the sequence (P40337 whole entry, looked up) above

[20] = target: T5, Protein cereblon/Polycomb protein SUZ12 (Homo sapiens); assay: PROTAC activity at CRBN/SUZ12 in human MDA-MB-468 cells assessed as degradation of SUZ12 protein expression at 0.2 to 5 uM incubated for 24 hrs by Western blotting analysis; assay type: cell-based; settings: dose 0.2-5 µM
[21] = target: von Hippel-Lindau disease tumor suppressor/Histone-lysine N-methyltransferase EZH2 (Homo sapiens, UniProt Q15910+P40337); assay: PROTAC activity at VHL/EZH2 in human KARPAS-422 cells assessed as degradation of EZH2 protein expression by Western blotting analysis; assay type: cell-based
Sequence of von Hippel-Lindau disease tumor suppressor/Histone-lysine N-methyltransferase EZH2 (Q15910 whole entry): as the sequence (Q15910 whole entry, looked up) above
Sequence of von Hippel-Lindau disease tumor suppressor/Histone-lysine N-methyltransferase EZH2 (P40337 whole entry): as the sequence (P40337 whole entry, looked up) above

[22] = tested on: MDA-MB-468; assay: Induction of PRC2 degradation in human MDA-MB-468 cells assessed as reduction of H3K27me3 chromatin mark at 0.2 to 5 uM incubated for 24 hrs by Western blotting analysis; assay type: cell-based; settings: dose 0.2-5 µM

## Cc1nc(CCC(=O)NCCOc2ccc(OCC(=O)N[C@H](C(=O)N3C[C@H](O)C[C@H]3C(=O)NCc3ccc(-c4scnc4C)cc3)C(C)(C)C)cc2)ccc1-c1cnc(NCc2c(F)ccc3c2CCO3)n2cnnc12
[1]
  Activity: inactive
[2]
  Activity: Active
[3]
  Activity: inactive
[4]
  Activity: Active
[5]
  Activity: inactive
[6]
  Activity: Active
[7]
  Activity: inactive
[8]
  Activity: inactive
[9]
  Activity: inactive
[10]
  Activity: Active
[11]
  Activity: Active
[12]
  Activity: Active
[13]
  Activity: inactive
[14]
  Activity: Active
[15]
  Activity: inactive
[16]
  Activity: inactive
[17]
  Activity: inactive
[18]
  Activity: inactive
[19]
  DC50: < 0.12 µM
[20]
  Activity: Active
[21]
  DC50: < 0.12 µM
[22]
  Activity: Active
